For assay [1], the system named is Human immunodeficiency virus 1. Kind of assay: Antiviral activity against Human immunodeficiency virus 1 Ba-L infected in human PBMCs assessed as inhibition of viral replication in presence of human serum. Format: functional, organism-based.
Assay [2] addresses T1, Human immunodeficiency virus type 1 integrase (Human immunodeficiency virus 1, UniProt Q7ZJM1). Kind of assay: Displacement of [3H]GSK304649 from Human immunodeficiency virus 1 integrase by scintillation proximity assay. In general terms: In a radioligand displacement assay an active substance lowers the binding of a labelled ligand.
Assay [3] has as its system Human immunodeficiency virus 1. It is filed as functional, organism-based. The settings on record: NL432, MT4.
Assay [4] concerns Human immunodeficiency virus. The experiment in a line: microbe, parasite or virus in culture. The settings on record: Human immunodeficiency virus 1, MT4.
Description: Antiviral activity against vesicular stomatitis virus G-pseudotyped Human immunodeficiency virus infected in human MT-4 cells assessed as inhibition of viral replication
For assay [5], the system named is Human immunodeficiency virus 1. Kind of assay: Antiviral activity against INI-resistant Human immunodeficiency virus 1 expressing integrase T124A mutant gene infected in human HeLa-CD4 cells after 3 days. It is filed as functional.
Assay [6] deals with Human immunodeficiency virus 1. The experiment in a line: Antiviral activity against PI-resistant Human immunodeficiency virus 1. Format: functional, organism-based.
For assay [7], the system named is Human immunodeficiency virus 1. The experiment in a line: Antiviral activity against INI-resistant Human immunodeficiency virus 1 expressing integrase N155S mutant gene infected in human HeLa-CD4 cells after 3 days. It is filed as functional, organism-based.
Assay [8] deals with Human immunodeficiency virus 1. Format: functional, organism-based. As to conditions: NL432, MT4. The source holds these as a separate data set.
Assay [9] concerns the target T1, Human immunodeficiency virus type 1 integrase. The experiment in a line: Inhibition of Human immunodeficiency virus 1 integrase by strand transfer scintillation proximity assay. Background: SPA uses beads or plates that emit light when radiolabelled molecules are held near them.
The subject of assay [10] is Human immunodeficiency virus 1. The experiment in a line: Antiviral activity against INI-resistant Human immunodeficiency virus 1 expressing integrase P145S mutant gene infected in human HeLa-CD4 cells after 3 days. Format: functional.
The test system of assay [11] is Human immunodeficiency virus 1. Kind of assay: Antiviral activity against INI-resistant Human immunodeficiency virus 1 expressing integrase M154I mutant gene infected in human HeLa-CD4 cells after 3 days. Format: functional.
Assay [12] has as its system Human immunodeficiency virus 1. Kind of assay: Antiviral activity against INI-resistant Human immunodeficiency virus 1 expressing integrase Q146R mutant gene infected in human HeLa-CD4 cells after 3 days. It is filed as functional.
In assay [13] the test system is Human immunodeficiency virus 1. The experiment in a line: Antiviral activity against RTI-resistant Human immunodeficiency virus 1. It is filed as functional, organism-based.
Assay [14] has as its system Human immunodeficiency virus 1. The experiment in a line: Antiviral activity against INI-resistant Human immunodeficiency virus 1 expressing integrase E92Q mutant gene infected in human HeLa-CD4 cells after 3 days. It is filed as functional.
The test system of assay [15] is Human immunodeficiency virus 1. Kind of assay: Antiviral activity against INI-resistant Human immunodeficiency virus 1 expressing integrase S153Y mutant gene infected in human HeLa-CD4 cells after 3 days. Format: functional.
For assay [16], the target named is T1, Human immunodeficiency virus type 1 integrase. Kind of assay: Displacement of 20 nM [3H]GSK304649 from Human immunodeficiency virus 1 integrase by scintillation proximity assay.
Assay [17] deals with Human immunodeficiency virus 1. Format: functional, organism-based. The settings on record: NL432, MT4. This is another data set of the same source.
The subject of assay [18] is Human immunodeficiency virus 1. The experiment in a line: Antiviral activity against INI-resistant Human immunodeficiency virus 1 expressing integrase T66K mutant gene infected in human HeLa-CD4 cells after 3 days. Format: functional, organism-based.
For assay [19], the system named is Human immunodeficiency virus 1. Format: functional, organism-based. The settings on record: Human immunodeficiency virus 1, 3B, MT4.
Assay [20] concerns Human immunodeficiency virus 1. The experiment in a line: Antiviral activity against INI-resistant Human immunodeficiency virus 1 expressing integrase Q148K mutant gene infected in human HeLa-CD4 cells after 3 days. It is filed as functional, organism-based.
The subject of assay [21] is Human immunodeficiency virus 1. Kind of assay: Antiviral activity against Human immunodeficiency virus 1 Ba-L infected in human PBMCs assessed as inhibition of viral replication. It is filed as functional, organism-based.
In assay [22] the test system is Human immunodeficiency virus 1. Kind of assay: Antiviral activity against INI-resistant Human immunodeficiency virus 1 expressing integrase T66I mutant gene infected in human HeLa-CD4 cells after 3 days. It is filed as functional.
The test system of assay [23] is Human immunodeficiency virus 1. The experiment in a line: Antiviral activity against INI-resistant Human immunodeficiency virus 1 expressing integrase Q148R mutant gene infected in human HeLa-CD4 cells after 3 days. It is filed as functional, organism-based.
Assay [24] relates to Human immunodeficiency virus 1. Kind of assay: Antiviral activity against INI-resistant Human immunodeficiency virus 1 expressing integrase F121Y mutant gene infected in human HeLa-CD4 cells after 3 days. It is filed as functional, organism-based.

This note sets out measurements from ChEMBL document CHEMBL1255253, “The naphthyridinone GSK364735 is a novel, potent human immunodeficiency virus type 1 integrase inhibitor and antiretroviral” (Antimicrob Agents Chemother, 2008).

Molecules are shown by their SMILES. Active and inactive are the calls of the source. The calls are words filed in the database; no cut-off is given here.

The EC50 is the midpoint of the concentration-response curve. For orientation: Kd means the free concentration of one partner at which half of the binding sites on the other are occupied at equilibrium, for simple one-to-one binding. Low values mean a tighter complex, high ones a looser complex. As usually defined, the IC50 is the concentration at which inhibition is half-maximal. Read a low IC50 as inhibition by little substance.

T1 sequence (Q7ZJM1 whole entry): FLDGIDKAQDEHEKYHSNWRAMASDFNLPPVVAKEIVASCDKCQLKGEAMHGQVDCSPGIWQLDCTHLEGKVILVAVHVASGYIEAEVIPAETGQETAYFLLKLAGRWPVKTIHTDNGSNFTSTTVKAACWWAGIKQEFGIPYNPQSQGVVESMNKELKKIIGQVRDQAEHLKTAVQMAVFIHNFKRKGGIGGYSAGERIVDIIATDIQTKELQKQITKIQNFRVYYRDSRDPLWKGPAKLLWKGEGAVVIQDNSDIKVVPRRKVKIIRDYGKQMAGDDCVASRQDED

For `Cn1c(=O)c(C(=O)NCCO)c(O)c2ncc(Cc3ccc(F)cc3)cc21` [GSK-364735], the EC50 turned out to be 42 nM in [1], 1.7 nM in assay [4], 5 nM in assay [19] and 2 nM in assay [21]. The molecule further came in with a Kd in assay [2] of 26 nM. Also, the result in assay [3], in assay [7], in assay [18], in assay [20], in [23] and in assay [24] was inactive. For the same molecule, the “fold change (FC)” value in assay [5] worked out at 1; in assay [10] it was 1.4; in assay [11] it was 0.8; in assay [12] it was 1.7; in assay [14], 3.7; in [15] it was 1.4. Moreover, the “fold change (FC)” value in [22] is 1.2. Besides, the IC50 in assay [6] amounted to 2 nM; in assay [9], 7.8 nM; in assay [13], 2.2 nM; in assay [16] it was 11 nM. Also, the Activity entry in [8] and in assay [17] was “Dose-dependent effect” throughout.

As to `O=C(NCc1ccc(F)cc1)c1nc(N2CCCCS2(=O)=O)c2cccnc2c1O`, in [3], the outcome was inactive. In addition, the values for the EC50 in assay [4], in assay [19] and in [21] were 2.2 nM, 11 nM and 3 nM, respectively. Also, the Activity entry in assay [8] and in assay [17] was “Dose-dependent effect” throughout. The same molecule had an IC50 in [16] of 13 nM. For the same molecule, binding in [16] was characterised by a dissociation constant (Kd) of 3.3 nM.

As for `O=C1Nc2ccc(Cl)cc2[C@@](C#CC2CC2)(C(F)(F)F)O1`, in assay [3], the result was inactive. The Activity result in [8] and in [17] was “Dose-dependent effect” in each case.

In the case of `COc1cc2c(cc1Cc1cccc(Cl)c1F)c(=O)c(C(=O)O)cn2[C@H](CO)C(C)C`, the concentration giving a half-maximal response (EC50) worked out at 1 nM in [4], 2 nM in assay [19] and 2 nM in assay [21].

Regarding `Cc1nnc(C(=O)NC(C)(C)c2nc(C(=O)NCc3ccc(F)cc3)c(O)c(=O)n2C)o1`, the EC50 in assay [4] amounted to 2 nM; in [19], 1.8 nM; in assay [21] it was 2 nM.
